Experimental data taken from patent US7304186B2, “Synthetic method and novel chemical compounds” (Charterhouse Therapeutics Ltd., priority 2002, dated 2007).
Read-outs that look alike come from different tables or passages of the source.

What was measured:
[1] = test system: parainfluenza Sendai virus (SV); assay: Sendai virus replication in 37RC cells, virus yield by HAU titration; type: cell-based; settings: for IC50: read-out: ID50 (50% inhibitory dose/concentration)
Description: (§1) Monkey kidney 37RC cells were grown at 37° C. under the conditions described above for human lymphoblastoid Jurkat T cells. The parainfluenza Sendai virus (SV) was grown in the allantoic cavity of 10 day-old embryonated eggs. Viral titre was expressed in haemagglutinating units (HAU) per ml; […]. Virus yield at 24 hours after infection was determined in the supernatant of infected cells by HAU titration.
(§2) The ID50 (the 50% inhibitory dose/concentration) value at 24 hours and the TD100 (the dose or concentration at which a tested compound is 100% toxic to uninfected cells, determined visually by microscopy) for both (−)-Δ^12,14-15-deoxy-PG-J2 and for compound CTC-150 were measured and the following results were obtained.

NF-κB = assay: EMSA of NF-κB DNA-binding activity in TPA-stimulated Jurkat T cells; type: cell-based, Human; settings: for NF-κB inhibition (in words): TPA-stimulated, EMSA
Description: (§3) Human lymphoblastoid Jurkat T cells were grown at 37° C. in a 5% CO2 atmosphere in RPM1 1640 medium (GIBCO BRL, Gaithersburg, Md., United States of America) supplemented with 10% fetal calf serum (FCS, Hyclone Europe Ltd, United Kingdom), 2 mM glutamine and antibiotics according to the method described by A. Rossi et al.^48 The test compound was stored as a 100% ethanolic stock solution (100 mM) or in dimethylsulfoxide (100 mM) and diluted to the appropriate concentration in culture medium at the time of use. Cells were treated with different concentrations of test compound for 1 hour and then stimulated with 12-O-tetradecanoylphorbol-13-acetate (TPA, 25 ng/ml), which is a strong inducer of NF-κB. Control cells received an equal amount of control diluent. After 3 hours, whole-cell extracts were prepared and subjected to analysis of DNA-binding activity by EMSA (Electrophoretic Mobility Shift Assay) for detection of HSF or NF-κB activation, according to the method described by A. Rossi et al.^48
(§4) Specificity of protein-DNA complexes was verified by immunoreactivity with polyclonal antibodies specific for p65 (Rel A) or for HSF-1, for NF-κB and HSF respectively. Quantitative evaluation of NF-κB- and HSF-DNA complex formation was determined by Molecular Dynamics PhosphorImager (MDP) analysis and was expressed in arbitrary units, as described by A. Rossi et al.^49 The results for (−)-Δ^12,14-15-deoxy-PG-J2 are shown in FIG. 1.

Monkey kidney 37RC cells = type: cell-based
Description: as §1, §2

HSF = assay: EMSA of HSF DNA-binding activity in TPA-stimulated Jurkat T cells; type: cell-based, Human; settings: 1 hour pre-treatment, TPA 25 ng/ml, extracts after 3 hours
Description: as §3, with “After 3 hours, whole-cell extracts were prepared and subjected to analysis of DNA-binding activity by EMSA (Electrophoretic Mobility Shift Assay) for detection of HSF or NF-κB activation, according to the method described by A. Rossi et al.^48” left out
as §4

Row | SMILES | inhibition of Sendai virus replication (in words) ([1]; 37RC cells, virus yield at 24 hours) | IC50 ([1]; virus yield at 24 hours after infection, 37RC cells, 5 HAU/10^5 cells) [nM] | NF-κB inhibition (in words) (NF-κB) | TD100 (concentration at which compound is 100% toxic to uninfected cells) (Monkey kidney 37RC cells; uninfected 37RC cells, visually by microscopy) [µM] | concentration required to give an HSF activation to 200% of its original level (HSF) [µM] | IC50 ([1]; Respirovirus muris, 24 h) [nM] | antiviral activity relative to (−)-Δ^12,14-15-deoxy-PG-J2 (times more active) ([1]; ratio of ID50 values, Sendai virus in 37RC cells) | IC50 (NF-κB; Homo sapiens, 1 hour pre-treatment, TPA 25 ng/ml, extracts after 3 hours, read-out: concentration required to give an NF-κB inhibition to 50% of its original level (IC50)) [nM] | TD100 (concentration at which compound is 100% toxic to uninfected cells) (Monkey kidney 37RC cells; monkey) [µM]
1 | CCCCC/C=C/C=C1/C(=O)C=CC1C/C=C\CCCC(=O)O (stereo not drawn) [(−)-Δ^12,14-15-deoxy-PG-J2, reference compound] | potent inhibitor of Sendai virus replication | 3000 | potent inhibitor of NF-κB | 50 | – | – | – | – | –
2 | CC1C=CC(=O)/C1=C/c1ccccc1 (stereo not shown) [CTC-150, 4-methyl-5-[1-phenyl-meth-(E)-ylidene]-cyclopent-2-enone] | – | – | potent inhibitor of NF-κB | – | 0.02 | 700 | over 4 | 7000 | >50
